From US12344599B2, “Prodigiosin analogs and methods of use” (Institute For Cancer Research, priority 2016, dated 2025)

Legend:
H1975 = experiment: CellTiterGlo cell viability assay, H1975; assay type: cell-based; conditions: Homo sapiens, NCI-H1975; H1975, NSCLC, p53 R273H, 72 hours
Protocol: • 1) Cell lines: HT29, SW480, DLD-1, HCT116, and p53-null HCT116 cells, H1975, MDA-MD-231, U251, FaDu, CAL-27, PANC-1, Aspc-1, and MRC5 were obtained from the ATCC and cultured as recommended. Cells were regularly authenticated by bioluminescence, growth, and morphologic observation. The cells were routinely examined for Mycoplasma and all cell lines underwent STR authentication. • 2) Western blotting: After treatment, protein lysates were collected for Western blot analysis. 15 μg of protein was used for SDS-PAGE. After primary and secondary antibody incubations, the signal was detected by chemiluminescent detection kit, imaged by Syngene (Imgen Technologies). […] The cell viability was assessed by CellTiterGlo bioluminescent cell proliferation assay (Promega), following the manufacturer's protocol. Bioluminescence imaging was measured using the IVIS imager. Percentage of cell viability (mean±SEM) at each dose was calculated against the respective DMSO control. The IC50 values were determined from the sigmoidal dose-response curves using GraphPad Prims4. • 4) Caspase activity assay: Cells were seeded in 96-well plate (1×10^4 cells/well). […] The caspase 3/7 activity was assessed by Caspase-Glo® 3/7 Assay kit (Promega), following the manufacturer's protocol. Bioluminescence imaging was measured using the IVIS imager. […]

[1] = test system: γ-H2AX in HT29 and SW480 cells; experiment: γ-H2AX DNA damage marker, western blot and immunofluorescence staining; assay type: cell-based, human
Protocol: After treatment, protein lysates were collected for Western blot analysis. A total of […] of protein was used for SDS-PAGE. After primary and secondary antibody incubations, the signal was detected by a chemiluminescence detection kit, imaged by Syngene (Imgen Technologies). Antibodies for PUMA (for IHC), p53 (Santa Cruz Biotechnology), caspase 8, cleaved caspase 8, caspase 9, caspase 3, cleavage PARP, eIF2α, p-eIF2α (Ser51), CHOP, ATF4, DR5, FOXO3a, p-FOXO3a (Ser253), NF-κB p65, p-NF-κB p65 (Ser536), c-Jun, p-c-Jun (Ser63), JNK, p-JNK (Thr183/Tyr185), PUMA (for WB), c-Myc, phosphor-S62-cMyc (Cell Signaling Technology), Noxa, p21 (Calbiochem), p73 (Bethyl laboratories Inc), Ran (BD Biosciences), […] (Sigma).
A total of 5×10^4 cells were seeded in each well of 8-well chamber slides. After treatment, cells were fixed and permeabilized by methanol:acetone (1:1) for 20 minutes at −20° C. Fixed cells were blocked by 2% BSA for 1 hour, followed by primary antibody incubation for 1 hours and Cy3-conjuated secondary antibody incubation for 1 hour at room temperature. After washing, cells were stained with DAPI for 10 minutes at room temperature. Cells were mounted, and examined by fluorescence microscopy.
DNA damage induces the p53 pathway and leads to cell apoptosis. To study whether the p53 pathway restoration by compound PG3-Oc is due to DNA damage, the uptake and localization of PG3-Oc was investigated in cells. PG3-Oc and prodigiosin are red fluorescent compounds, and their localization in live cells can be monitored by fluorescence microscopy. PG3-Oc and prodigiosin rapidly entered cells within 2 hours of incubation and remained in the cytosol at the 8-hour time point in HT29 and SW480 cells (FIG. 46). […] Baldino, et al. reported that prodigiosin localized to the cytoplasm, but not within the nucleus, and no γ-H2AX signal was detected in A549 cancer cells (Baldino et al., Bioorg Med Chem Lett, 2006, 16, 701-704). […]

Compound: CCCCCCCCOC(=O)CCc1c(C)[nH]c(/C=C2\N=C(c3ccc[nH]3)C=C2OC)c1C [PG3-Oc, Octyl (Z)-3-(5-((4′-methoxy-1H,5′H-[2,2′-bipyrrol]-5′-ylidene)methyl)-2,4-dimethyl-1H-pyrrol-3-yl)propanoate]
- IC50 (H1975): 190 nM
- induction of 65-H2AX (DNA damage marker) / foci formation [1]: did not induce
